Experimental data taken from patent US20080306094A1 (priority 2005, published 2008).
Read-outs that look alike come from different tables or passages of the source.

Assays:
HUVEC = HUVEC assay, endothelial cell proliferation; type: cell-based; conditions: Homo sapiens
Calu-6 tumour xenograft = Calu-6 tumour xenograft in vivo solid tumour model; conditions: once-daily oral, 28 days

## COc1cc2c(Oc3ccc4[nH]c(C)cc4c3F)ncnc2cc1OCCCN1CCCC1 [AZD2171, 4-(4-fluoro-2-methyl-1H-indol-5-yloxy)-6-methoxy-7-(3-(pyrrolidin-1-yl)propoxy)quinazoline]
HUVEC; VEGF-stimulated, read-out: IC50, VEGF-stimulated endothelial cell proliferation
  IC50: 400 ± 200 pM
HUVEC; basal, read-out: IC50, basal endothelial cell proliferation
  IC50: > 500000 pM
Calu-6 tumour xenograft; 1.5 mg/kg/day, P<0.01 one-tailed t test
  inhibition of growth of Calu-6 tumour xenograft: 49%
Calu-6 tumour xenograft; 3 mg/kg/day, P<0.0001 one-tailed t test
  inhibition of growth of Calu-6 tumour xenograft: 69%
Calu-6 tumour xenograft; 6 mg/kg/day, P<0.0001 one-tailed t test
  inhibition of growth of Calu-6 tumour xenograft: 91%
